Data taken from publication PMC4819196, “A novel fibroblast growth factor receptor 1 inhibitor protects against cartilage degradation in a murine model of osteoarthritis” (Scientific Reports, 2016).

Biological target: fibroblast growth factor receptor 1 (FGFR1) (Homo sapiens, UniProt P11362)
Assay: cell-free kinase inhibition, caliper mobility shift assay, ATP at Km ([…])
Assay type: biochemical

Sequence of fibroblast growth factor receptor 1 (FGFR1) (P11362 22-822): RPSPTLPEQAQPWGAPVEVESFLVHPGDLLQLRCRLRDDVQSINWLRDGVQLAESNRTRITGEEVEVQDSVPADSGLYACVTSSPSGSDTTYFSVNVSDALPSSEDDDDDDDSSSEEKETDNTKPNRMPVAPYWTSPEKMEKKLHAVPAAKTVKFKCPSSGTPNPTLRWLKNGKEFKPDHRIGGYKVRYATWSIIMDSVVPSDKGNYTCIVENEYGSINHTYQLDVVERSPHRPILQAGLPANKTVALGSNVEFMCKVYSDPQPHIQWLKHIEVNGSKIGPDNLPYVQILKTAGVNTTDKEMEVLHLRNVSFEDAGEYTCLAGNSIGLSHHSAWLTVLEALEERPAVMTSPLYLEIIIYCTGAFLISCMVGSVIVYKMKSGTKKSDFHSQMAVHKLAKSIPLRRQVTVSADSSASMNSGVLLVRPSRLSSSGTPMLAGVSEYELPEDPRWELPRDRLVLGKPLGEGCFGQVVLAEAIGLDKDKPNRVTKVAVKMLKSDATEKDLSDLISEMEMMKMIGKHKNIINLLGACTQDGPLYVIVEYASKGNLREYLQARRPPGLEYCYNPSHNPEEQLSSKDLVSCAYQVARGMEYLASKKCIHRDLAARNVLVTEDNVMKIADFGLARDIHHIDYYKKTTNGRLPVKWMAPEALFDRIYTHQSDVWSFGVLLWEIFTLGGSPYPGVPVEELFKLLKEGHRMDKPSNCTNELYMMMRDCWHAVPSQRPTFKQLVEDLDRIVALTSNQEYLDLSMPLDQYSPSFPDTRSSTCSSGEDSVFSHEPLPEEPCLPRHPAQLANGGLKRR

IC50: 2.7 ± 0.54 µM
SMILES: CCOc1ccc(/C=C2\CC[C@@]3(C2=O)[C@@H](c2ccc(OCC)cc2)CN(C)[C@]32C(=O)c3cccc4cccc2c34)cc1 [G141]
